In patent US9737616B2, “Compounds and methods for the treatment of ERB B2/NEU positive diseases” (Bio-Thera Solutions, Ltd., Co., priority 2012, dated 2017):

Columns and labels:
tubulin = assay: HTS-Tubulin Polymerization Assay Kit, tubulin polymerization in vitro; assay type: biochemical; conditions: for inhibition of tubulin polymerization compared with the PBS buffer: Example 6, 1 μM stock of test substance, 4 mg/mL tubulin, 37° C., 405 nm
Protocol: The effect of 3AA-MDC, 206-3AA-MDC and the metabolites (Cys-3AA-MDC and Lys-mcc-MDC) of prodrug antibody maytansinoid conjugates on the tubulin polymerization in vitro was assessed by HTS-Tubulin Polymerization Assay Kit (BK004P, Cytoskeleton, Inc., USA). According to the instruction of kit, pre-warm the 96-well plate to 37° C. for 30 min prior to starting the assay. At the same time, the spectrophotometer (SpectraMax, Molecular Devices, USA) was set as follow: wavelength, 405 nm; temperature, 37° C.; Kinetic, 31 cycles of 1 reading per minute. Make cold G-PEM buffer (990 μL General Tubulin Buffer+10 μL GTP Stock) and keep it on ice. Prepare 4 mg/mL tubulin, 1 μM L-3AA-MDC (N2′-deacetyl-N2′-(6-maleimido-1-oxo-hexyl)maytansine), 1 μM 206-3AA-MDC, 1 μM cys-3AA-MDC, 1 μM lys-mcc-MDC, 100 μM Paclitaxel, and 100 μM Nocodazole. Add 10 μL G-PEM, 3AA-MDC, 206-3AA-MDC, cys-3AA-MDC, lys-mcc-MDC, Paclitaxel, Nocodazole into the wells, and then add 100 μL 4 mg/ml tubulin to each well. Immediately place the plate into the spectrophotometer and start recording using the kinetic setup described above. […] Nocodazole, the tubulin polymerization inhibitor, was set as a negative control. The metabolite Cys-3AA-MDC was prepared by reaction of 3AA-MDC with cysteine under the base DIEA in CH2Cl2. […] The metabolite Lys-MCC-MDC was prepared by reaction of SMCC-MDC with lysine under the base DIEA in DMF.
The effect of 3AA-MDC and related metabolites on the tubulin polymerization in vitro was assessed by HTS-Tubulin Polymerization Assay Kit (BK004P, Cytoskeleton, Inc., USA). According to the instruction of kit, pre-warm the 96-well plate to 37° C. for 30 min prior to starting the assay. At the same time, the spectrophotometer (SpectraMax, Molecular Devices, USA) was set as follow: wavelength, 405 nm; temperature, 37° C.; Kinetic, 31 cycles of 1 reading per minute. Make cold G-PEM buffer (990 μL General Tubulin Buffer+10 μL GTP Stock) and keep it on ice. Prepare 4 mg/ml tubulin, 200 nM L-3AA-MDC (N2′-deacetyl-N2′-(6-maleimido-1-oxo-hexyl)maytansine), or related compounds cys-3AA-MDC, or lys-mcc-MDC, 100 μM Paclitaxel, 100 μM Nocodazole, and 1 μM 206-3AA-MDC (3AA-MDC-antibody). Add 10 μL G-PEM, 3AA-MDC, Paclitaxel, Nocodazole and 206-3AA-MDC or related metabolites into the wells, and then add 100 μL 4 mg/ml tubulin to each well. Immediately place the plate into the spectrophotometer and start recording using the kinetic setup described above.

[1] = system: human acute lymphoblastic leukemia line C.E.M.; conditions: Wolpert-DeFillippes et al. 1975; cited from earlier work

## COc1cc2cc(c1Cl)N(C)C(=O)C[C@H](OC(=O)[C@H](C)N(C)C(=O)CCCCCN1C(=O)C=CC1=O)[C@]1(C)OC1[C@H](C)[C@@H]1C[C@@](O)(NC(=O)O1)[C@H](OC)/C=C/C=C(\C)C2 (stereo partly drawn) [3AA-MDC, N2′-deacetyl-N2′-(6-maleimido-1-oxo-hexyl)-maytansine]
tubulin
  inhibition of tubulin polymerization compared with the PBS buffer: more significantly inhibited
tubulin; Example 7, 200 nM stock, FIG. 1
  inhibition of tubulin polymerization: more significantly inhibited

## COc1cc2cc(c1Cl)N(C)C(=O)C[C@H](OC(=O)[C@H](C)N(C)C(=O)CCSC1CC(=O)N(CC3CCC(C(=O)NCCCC[C@H](N)C(=O)O)CC3)C1=O)[C@]1(C)O[C@H]1[C@H](C)[C@@H]1C[C@@](O)(NC(=O)O1)[C@H](OC)/C=C/C=C(\C)C2 (stereo partly drawn) [Lys-mcc-MDC]
tubulin
  inhibition of tubulin polymerization compared with the PBS buffer: more significantly inhibited

## COc1cc2cc(c1Cl)N(C)C(=O)C[C@H](OC(=O)[C@H](C)N(C)C(C)=O)[C@]1(C)O[C@H]1[C@H](C)[C@@H]1C[C@@](O)(NC(=O)O1)[C@H](OC)/C=C/C=C(\C)C2 [Maytansine]
[1]
  inhibitory concentration, as low as: 10^−7 µg/mL

## COC(=O)Nc1nc2ccc(C(=O)c3cccs3)cc2[nH]1 [Nocodazole]
tubulin; Example 7, 100 μM stock
  relative activity of tubulin polymerization, decreased: 2.5 fold

## CC(=O)O[C@H]1C(=O)[C@@]2(C)[C@H]([C@H](OC(=O)c3ccccc3)[C@]3(O)C[C@H](OC(=O)[C@H](O)[C@@H](NC(=O)c4ccccc4)c4ccccc4)C(C)=C1C3(C)C)[C@]1(OC(C)=O)CO[C@@H]1C[C@@H]2O [Paclitaxel]
tubulin; Example 7, 100 μM stock
  relative activity of tubulin polymerization, enhanced: about 3 fold
